From the supplement of paper PMC10307832

What was measured:
Test in all cases: relative viability (nuclei count vs DMSO), 5 days (fraction); higher = more cells survive
Doramapimod + Tozasertib = compound: Cc1ccc(-n2nc(C(C)(C)C)cc2NC(=O)Nc2ccc(OCCN3CCOCC3)c3ccccc23)cc1 [Doramapimod] + Cc1cc(Nc2cc(N3CCN(C)CC3)nc(Sc3ccc(NC(=O)C4CC4)cc3)n2)n[nH]1 [Tozasertib] (partner 0.1 µM)
In short: (§1)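 Lung cancer cell lines, seeded in 1536-well plates, were treated the following day by pin tool with a single drug or with five library-drug doses (not always all listed) in √10 steps on top of a fixed anchor-drug dose. Cells were fixed and nuclei stained in one step after 5 days, and nuclei were counted. Relative viability is the nuclei count for treated wells divided by that for vehicle wells, reported as medians of duplicate plates.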

RAF265 + Palbociclib = compound: Cn1c(Nc2ccc(C(F)(F)F)cc2)nc2cc(Oc3ccnc(-c4ncc(C(F)(F)F)[nH]4)c3)ccc21 [RAF265] + CC(=O)c1c(C)c2cnc(Nc3ccc(N4CCNCC4)cn3)nc2n(C2CCCC2)c1=O [Palbociclib] (partner 0.5 µM)
In short: as §1

RAF265 + Alpelisib = compound: Cn1c(Nc2ccc(C(F)(F)F)cc2)nc2cc(Oc3ccnc(-c4ncc(C(F)(F)F)[nH]4)c3)ccc21 [RAF265] + Cc1nc(NC(=O)N2CCC[C@H]2C(N)=O)sc1-c1ccnc(C(C)(C)C(F)(F)F)c1 [Alpelisib] (partner 2 µM)
In short: as §1

RAF265 + Decitabine = compound: Cn1c(Nc2ccc(C(F)(F)F)cc2)nc2cc(Oc3ccnc(-c4ncc(C(F)(F)F)[nH]4)c3)ccc21 [RAF265] + Nc1ncn([C@H]2C[C@H](O)[C@@H](CO)O2)c(=O)n1 [Decitabine] (partner 2 µM)
In short: as §1

Cell Line | relative viability (Doramapimod + Tozasertib; first compound 0.02 µM) | relative viability (Doramapimod + Tozasertib; first compound 0.06325 µM) | relative viability (Doramapimod + Tozasertib; first compound 0.2 µM) | relative viability (Doramapimod + Tozasertib; first compound 0.6325 µM) | relative viability (Doramapimod + Tozasertib; first compound 2 µM) | relative viability (RAF265 + Palbociclib; first compound 0.01 µM) | relative viability (RAF265 + Palbociclib; first compound 0.03162 µM) | relative viability (RAF265 + Palbociclib; first compound 0.1 µM) | relative viability (RAF265 + Palbociclib; first compound 0.3162 µM) | relative viability (RAF265 + Palbociclib; first compound 1 µM) | relative viability (RAF265 + Alpelisib; first compound 0.01 µM) | relative viability (RAF265 + Alpelisib; first compound 0.03162 µM) | relative viability (RAF265 + Alpelisib; first compound 0.1 µM) | relative viability (RAF265 + Alpelisib; first compound 0.3162 µM) | relative viability (RAF265 + Alpelisib; first compound 1 µM) | relative viability (RAF265 + Decitabine; first compound 0.01 µM) | relative viability (RAF265 + Decitabine; first compound 0.03162 µM) | relative viability (RAF265 + Decitabine; first compound 0.1 µM) | relative viability (RAF265 + Decitabine; first compound 0.3162 µM) | relative viability (RAF265 + Decitabine; first compound 1 µM)
SW 1573 | 0.267 | 0.208 | 0.198 | 0.22 | 0.157 | 0.419 | 0.328 | 0.312 | 0.245 | 0.215 | 1 | 0.638 | 0.645 | 0.574 | 0.343 | 0.675 | 0.406 | 0.4 | 0.325 | 0.244
NCI-H1975 | 0.802 | 0.729 | 0.937 | 0.817 | 0.639 | 0.609 | 0.396 | 0.263 | 0.184 | 0.182 | 0.589 | 0.427 | 0.306 | 0.234 | 0.173 | 0.403 | 0.364 | 0.308 | 0.263 | 0.254
Calu-6 | – | – | – | – | – | – | – | – | – | – | 0.958 | 0.771 | 0.43 | 0.302 | 0.274 | – | – | – | – | –
SW 900 | 0.538 | 0.584 | 0.618 | 0.479 | 0.481 | 0.582 | 0.558 | 0.519 | 0.396 | 0.237 | – | – | – | – | – | 0.51 | 0.429 | 0.505 | 0.412 | 0.407
NCI-H1623 | 0.424 | 0.426 | 0.411 | 0.46 | 0.318 | – | – | – | – | – | – | – | – | – | – | – | – | – | – | –
NCI-H3122 | 0.439 | 0.408 | 0.448 | 0.431 | 0.365 | 0.18 | 0.216 | 0.19 | 0.198 | 0.19 | 0.909 | 0.868 | 0.783 | 0.559 | 0.417 | 0.408 | 0.379 | 0.429 | 0.304 | 0.29
NCI-H2347 | 0.552 | – | 0.565 | 0.587 | 0.555 | 0.485 | 0.405 | 0.406 | 0.391 | 0.363 | 1.18 | 0.97 | 0.933 | 0.612 | 0.488 | 0.676 | 0.561 | 0.574 | 0.526 | 0.382
HCC-44 | 0.961 | 1.01 | 1.19 | 0.913 | 0.84 | 1.01 | 0.908 | 0.96 | 1.04 | 1.01 | 0.743 | 0.699 | 0.882 | 0.75 | 0.695 | 0.945 | 0.951 | 0.95 | 0.967 | 0.947
